Data reported in ChEMBL document CHEMBL1152427, “Antimicrobial natural products as beta-ketoacyl-acyl carrier protein synthase III inhibitors” (Bioorg Med Chem, 2009).
≈ marks a conversion by molar mass, not a printed value.

Tests used:
[1] = target: T1, 3-oxoacyl-[acyl-carrier-protein] synthase 3 (Escherichia coli) (UniProt C3TDZ2); assay: Binding affinity to Escherichia coli KAS3 expressed in Escherichia coli BL21 (DE3) by NMR analysis
T1 sequence (whole entry): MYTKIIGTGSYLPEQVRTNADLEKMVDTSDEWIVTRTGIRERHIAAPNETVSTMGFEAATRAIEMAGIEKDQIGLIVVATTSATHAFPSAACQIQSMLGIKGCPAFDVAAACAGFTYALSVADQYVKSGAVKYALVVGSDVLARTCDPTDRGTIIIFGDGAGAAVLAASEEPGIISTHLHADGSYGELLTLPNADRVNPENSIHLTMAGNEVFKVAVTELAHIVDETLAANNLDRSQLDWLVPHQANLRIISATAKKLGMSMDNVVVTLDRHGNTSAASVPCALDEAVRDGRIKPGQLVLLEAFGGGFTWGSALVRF

Enterococcus faecalis [2] = assay: Antibacterial activity against vancomycin-resistant Enterococcus faecalis clinical isolates after 20 hrs by twofold serial broth dilution method; format: functional
Enterococcus faecalis [3] = assay: Antibacterial activity against Enterococcus faecalis KCTC 2011 after 20 hrs by twofold serial broth dilution method; format: functional; details: KCTC 2011, 20 h
Staphylococcus aureus [4] = assay: Antibacterial activity against methicillin-resistant Staphylococcus aureus CCARM 3114 after 20 hrs by twofold serial broth dilution method; format: functional; details: CCARM 3114, 20 h
Staphylococcus aureus [5] = assay: Antibacterial activity against Staphylococcus aureus KCTC 1621 after 20 hrs by twofold serial broth dilution method; format: functional; details: KCTC 1621, 20 h
Escherichia coli = assay: Antibacterial activity against Escherichia coli after 20 hrs by twofold serial broth dilution method; format: functional
[6] = Solubility of the compound; format: physicochemical
[7] = Cytotoxicity against human HaCaT cells assessed as cell survival at 16 uM after 24 hrs by MTT assay; format: cell-based; details: read-out: Survival
HaCaT [8] = assay: Cytotoxicity against human HaCaT cells assessed as cell morphology at 100 uM after 24 hrs by phase contrast microscopy; format: cell-based
HaCaT [9] = assay: Cytotoxicity against human HaCaT cells assessed as cell survival at 100 uM after 24 hrs by MTT assay; format: cell-based

Row | SMILES | K [1] | MIC (Enterococcus faecalis [2]) [µM] | MIC (Enterococcus faecalis [3]) [µM] | MIC (Staphylococcus aureus [4]) [µM] | MIC (Staphylococcus aureus [5]) [µM] | MIC (Escherichia coli) [µM] | solubility [6] | viability at 24 h, 16 µM [7] [%] | Activity (HaCaT [8]) | Activity (HaCaT [9])
1 | C=C/C(C)=C/[C@@]1(C)SC(=O)C(C)=C1O [THIOLACTOMYCIN] | 1.18 ×10⁴ /M | 128 (≈ 26.9 µg/mL) | 256 (≈ 53.8 µg/mL) | 128 (≈ 26.9 µg/mL) | 256 (≈ 53.8 µg/mL) | 128 (≈ 26.9 µg/mL) |  |  |  | 
2 | O=c1c(O)c(-c2ccccc2)oc2ccc(O)cc12 | 1.32 ×10⁴ /M | 256 (≈ 65.1 µg/mL) | 128 (≈ 32.5 µg/mL) | 16 (≈ 4.07 µg/mL) | 16 (≈ 4.07 µg/mL) | > 1020 | Insoluble | 90 |  | 
3 | O=C(CCc1ccc(O)cc1)c1c(O)cc(O)cc1O [PHLORETIN] | 2.38 ×10⁷ /M | 128 (≈ 35.1 µg/mL) | 128 (≈ 35.1 µg/mL) | 16 (≈ 4.39 µg/mL) | 32 (≈ 8.78 µg/mL) | 128 (≈ 35.1 µg/mL) |  |  | Not Active | Not Active
4 | O=c1c(O)c(-c2ccc(O)cc2)oc2ccc(O)cc12 | 6.22 ×10⁶ /M | > 1020 | > 1020 | > 1020 | > 1020 | > 1020 |  |  |  | 
5 | COc1ccc(-c2coc3cc(O[C@@H]4O[C@H](CO)[C@@H](O)[C@@H](O)[C@@H]4O)cc(O)c3c2=O)cc1 | 5.6 ×10⁶ /M | > 1020 | > 1020 | > 1020 | > 1020 | > 1020 |  |  |  | 
